{"source": "patent US10703737B2", "about": "“HDAC inhibitors and uses thereof” (MUSC FOUNDATION FOR RESEARCH DEVELOPMENT, priority 2018, dated 2020)", "key": {"HDAC1": {"molecular_target": "HDAC1 (Homo sapiens, UniProt Q13547)", "sequence (Q13547 whole entry, species assumed)": "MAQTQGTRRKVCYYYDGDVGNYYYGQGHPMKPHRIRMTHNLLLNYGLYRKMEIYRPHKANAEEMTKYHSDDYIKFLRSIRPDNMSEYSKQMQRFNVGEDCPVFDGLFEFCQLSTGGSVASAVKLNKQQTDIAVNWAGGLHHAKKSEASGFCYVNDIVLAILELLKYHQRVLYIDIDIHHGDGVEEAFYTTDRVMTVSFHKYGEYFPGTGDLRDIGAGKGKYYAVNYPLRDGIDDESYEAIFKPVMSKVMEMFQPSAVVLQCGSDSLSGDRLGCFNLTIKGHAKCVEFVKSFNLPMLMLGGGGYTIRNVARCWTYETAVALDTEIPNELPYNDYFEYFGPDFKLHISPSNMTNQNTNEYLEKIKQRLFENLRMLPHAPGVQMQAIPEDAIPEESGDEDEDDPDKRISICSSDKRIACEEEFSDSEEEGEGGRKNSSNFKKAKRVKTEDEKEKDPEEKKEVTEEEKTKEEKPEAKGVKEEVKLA", "test": "HDAC1 inhibition IC50", "type": "biochemical"}, "HDAC2": {"molecular_target": "HDAC2 (Homo sapiens, UniProt Q92769)", "sequence (Q92769 whole entry, species assumed)": "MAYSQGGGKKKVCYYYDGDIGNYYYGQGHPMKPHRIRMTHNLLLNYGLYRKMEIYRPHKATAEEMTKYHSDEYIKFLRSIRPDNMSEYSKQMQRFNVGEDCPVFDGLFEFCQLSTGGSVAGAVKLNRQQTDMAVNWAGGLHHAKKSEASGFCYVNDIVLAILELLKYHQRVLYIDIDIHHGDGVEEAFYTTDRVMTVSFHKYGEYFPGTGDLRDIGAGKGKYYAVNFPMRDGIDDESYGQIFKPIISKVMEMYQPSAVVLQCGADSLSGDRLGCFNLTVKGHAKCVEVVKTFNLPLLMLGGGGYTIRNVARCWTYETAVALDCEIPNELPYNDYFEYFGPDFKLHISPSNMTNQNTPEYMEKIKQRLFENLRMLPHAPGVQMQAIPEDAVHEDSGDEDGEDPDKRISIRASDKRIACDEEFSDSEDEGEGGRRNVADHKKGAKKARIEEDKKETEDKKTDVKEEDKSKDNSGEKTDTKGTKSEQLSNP", "test": "HDAC2 inhibition IC50", "type": "biochemical"}, "HDAC3": {"molecular_target": "HDAC3 (Homo sapiens, UniProt O15379)", "sequence (O15379 whole entry, species assumed)": "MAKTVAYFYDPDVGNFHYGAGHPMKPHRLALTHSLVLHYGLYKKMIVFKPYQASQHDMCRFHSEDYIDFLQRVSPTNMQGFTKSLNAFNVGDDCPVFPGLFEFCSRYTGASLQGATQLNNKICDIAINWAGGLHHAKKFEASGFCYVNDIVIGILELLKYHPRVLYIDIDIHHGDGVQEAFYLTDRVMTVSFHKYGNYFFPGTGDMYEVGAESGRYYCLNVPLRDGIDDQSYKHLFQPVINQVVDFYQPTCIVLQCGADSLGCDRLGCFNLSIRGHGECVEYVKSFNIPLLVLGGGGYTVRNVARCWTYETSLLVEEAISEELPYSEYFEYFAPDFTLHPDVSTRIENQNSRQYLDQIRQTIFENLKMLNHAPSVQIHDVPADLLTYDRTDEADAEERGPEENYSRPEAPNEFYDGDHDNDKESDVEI", "sequence (Q9Y618 395-489 partner limits assumed, species assumed)": "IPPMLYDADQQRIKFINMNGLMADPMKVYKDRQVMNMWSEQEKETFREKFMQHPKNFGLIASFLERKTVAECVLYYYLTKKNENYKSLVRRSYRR", "test": "HDAC3 inhibition IC50", "type": "biochemical"}, "[1]": {"test_system": "hearts from Sprague-Dawley rats", "test": "Langendorff isolated heart ischemia-reperfusion model, drug at reperfusion (ex vivo)", "details": "drug during reperfusion; for left ventricular function (dP/dtmax, dP/dtmin, developed pressure, rate pressure product): 30 min ischemia, 60 min reperfusion, vs drug-free control; for infarct area / viable myocardium (TTC staining): end of 60 min reperfusion", "experimental": "(B) Graphs represent measurements of left ventricular function after 30 minutes of ischemia and 60 minutes of reperfusion. dP/dtmax indicates the rate of pressure development, dP/dtmin indicates the rate of pressure relaxation, Developed Pressure was calculated as the difference between the systolic and diastolic pressures, Rate Pressure Product was calculated as the developed pressure multiplied by the heart rate. Measurements were taken at the end of reperfusion. (C) TTC staining for infarct area at the end of reperfusion; yellow/white region indicates area of infarction. Infarct areas were measured using imageJ software. All data are represented as mean+/−S.D. N=4, t-test *p,0.05.\nFIG. 3 provides data showing (A) Confocal fluorescent images of myocytes loaded with LL-66 and Mitotracker Deep Red FM. (B) LV functional measurements taken at the end of 30 minutes ischemia and 60 minutes of reperfusion, represented as a percentage of baseline pre-ischemia function. dP/dtmax indicates the rate of pressure development, dP/dtmin indicates the rate of pressure relaxation, Developed Pressure was calculated as the difference between the systolic and diastolic pressures, Rate Pressure Product was calculated as the developed pressure multiplied by the heart rate. Measurements were taken at the end of reperfusion. (C) TTC staining for infarct at the end of reperfusion; yellow/white region indicates area of infarction. Infarct areas were measured using image) software. (D) Area of Infarction for each of the groups in (C). N=3 for (A), For B-D, All data are represented as mean+/−S.D. N=4 t-test for panel B, one way ANOVA with bonferroni post-test for panel D *p<0.05.\nTo test whether selective class I HDAC inhibition can postcondition the heart against […], the inventors isolated hearts from Sprague-Dawley rats and perfused them using a constant pressure Langendorff apparatus. After 15 minutes of equilibration, the inventors subjected the hearts to 30 minutes of ischemia, followed by 60 minutes of reperfusion. The selective class I HDAC inhibitor MS-275 was administered throughout the reperfusion phase and compared to drug-free control hearts (FIG. 1A). In order to measure left ventricular functional performance, a saline-filled balloon was inserted into the left ventricle and attached to a pressure transducer. […] At the conclusion of the 60 minute reperfusion period, hearts were removed from the perfusion column and sliced into 2 mm transverse sections using a tissue slicing matrix. Hearts were then incubated in 2,3,5-triphenyltetrazolium chloride ([…]) in order to determine the amount of infarcted myocardium. […]"}, "[2]": {"test_system": "isolated adult rat cardiac myocytes", "test": "Seahorse oxygen consumption rate (OCR) in myocytes, normoxia or simulated hypoxia-reoxygenation", "type": "cell-based", "experimental": "(§1) FCCP was injected at point A and […] injected at point B. (B) Measurements of OCR in isolated myocytes subjected to normoxia (blue) or chemical hypoxia. reoxygenation (red) and reperfused with DMSO (red), MS-275 (pink), or LL-66 (peach). For (A) and (B), top panels are representative, bottom panels are the uncoupled rate as a percentage of baseline rate over 4 runs. (C) Oxyblotting of tissue homogenates from Langendorff hearts subjected to I/R+/−LL-66 or MS-275. Representative seahorse data are represented mean +/−SEM, Bar graphs are represented mean +/−S.D. For all experiments, N-4, one way ANOVA with Dunnet post test *p<0.05, **p<0.01.\n(§2) Since acetylation is known to regulate the activity of mitochondrial enzymes involved in multiple metabolic pathways, the inventors decided to determine if class I HDAC inhibition affects metabolic activity in cardiac myocytes both at baseline and when subjected to simulated hypoxia-reoxygenation (sI/R). For these experiments, isolated adult rat cardiac myocytes were subjected to chemical hypoxia or normoxia control for 90 minutes, then reperfused in the presence of DMSO vehicle, MS-275, or LL-66 for 60 minutes. At the conclusion of the reperfusion period, myocytes were loaded into a Seahorse extracellular flux analyzer and the oxygen consumption rate (OCR) was analyzed at baseline and in response to FCCP (injection A) and […] (injection B)."}, "Langendorff hearts": {"test_system": "Langendorff hearts", "test": "Oxyblotting of lysates from Langendorff hearts subjected to I/R", "set-up": "species or system rat", "details": "I/R hearts +/- drug", "experimental": "as §1\nas §2, with “For these experiments, isolated adult rat cardiac myocytes were subjected to chemical hypoxia or normoxia control for 90 minutes, then reperfused in the presence of DMSO vehicle, MS-275, or LL-66 for 60 minutes.” left out"}, "SDHA": {"test_system": "SDHA", "test": "Mass spectrometry of protein acetyl-lysine in I/R hearts treated at reperfusion", "set-up": "species or system rat", "details": "for change in SDHA acetylation: I/R hearts, treated at reperfusion, preliminary MS data; for acetylation of SDHA K480: IR with drug treatment", "experimental": "(§3) N=3 per group. (B) Treatment of Langendorff hearts with HDAC inhibitors reduce succinate dehydrogenase activity. SDH activity was measured in tissue lysates from reperfused hearts treated with either MS275 or LL-66 at reperfusion. N=4 per group. (C) SDHA activity was measured in mitochondria isolated from HEK2.93 cells expressing WT, K480Q or K480R mutants. N=4\nSamples from I/R hearts treated with LL-66, LL-224, MS-275 and vehicle at reperfusion were prepared for mass spectrometry to detect changes in protein acetyl-lysine. […] The inventors previously proposed to first focus on the lysine corresponding to mouse SDHA K538. […] SDH is unique in that it is the only enzyme that participates both in the Krebs cycle and oxidative phosphorylation in mitochondria. Thirteen acetyl-lysine's have been identified on SDHA but there is no acetylation of SDHB^11*, and SDHA is hyper-acetylated in the Sirt3 knockout mouse. […] HEK293 lowers SDH basal activity^13*, SDH K179 is a target of Sirt3.\n(§4) Therefore, since inhibition of the mitochondrial HDAC1 represses SDH activity and. K538 is hyperacetylated in IR when HDAC1 is inhibited, the inventors first proposed to test whether K538 acetylation represses SDH activity. The inventors have made and expressed the mouse WT, K538Q and K538R point mutants of SDHA in HEK293 cells to determine if acetylation of K538 also represses SDH activity. Contrary to what the inventors had hoped the K538Q and K538R SDHA mutants had no difference in SDHA activity from WT SDHA after normalization for expression (data not shown). […] The K480R has WT activity and K.480Q has suppressed SDHA activity (FIG. 5C) when expressed in HEK293 cells."}, "succinate dehydrogenase": {"test_system": "succinate dehydrogenase", "test": "SDH activity in tissue lysates from reperfused Langendorff hearts", "set-up": "species or system rat", "details": "Langendorff hearts treated at reperfusion", "experimental": "as §3, §4"}, "[3]": {"details": "at baseline (normoxia), FCCP-uncoupled"}, "[4]": {"details": "following sI/R (90 min chemical hypoxia, 60 min reperfusion with drug)"}}, "data": [{"smiles": "CCCNNC(=O)c1ccc(NC(=O)CNC(=O)c2ccccc2-c2c3ccc(=N)cc-3oc3cc(N)ccc23)cc1", "note": "[LL162, 6-amino-9-(2-((2-oxo-2-((4-(2-propylhydrazine-1-carbonyl)phenyl)amino)ethyl)carbamoyl)phenyl)-3H-xanthen-3-iminium 2,2,2-trifluoroacetate]", "values": [{"measurement": "IC50", "setting": "HDAC1", "value": 0.124, "unit": "µM"}, {"measurement": "IC50", "setting": "HDAC2", "value": 0.468, "unit": "µM"}, {"measurement": "IC50", "setting": "HDAC3", "value": 0.007, "unit": "µM"}]}, {"smiles": "CCCNNC(=O)CCCCCCNC(=O)c1ccccc1-c1c2ccc(=N)cc-2oc2cc(N)ccc12", "note": "[LL142, 6-amino-9-(2-((7-oxo-7-(2-propylhydrazinyl)heptyl)carbamoyl)phenyl)-3H-xanthen-3-iminium 2,2,2-trifluoroacetate]", "values": [{"measurement": "IC50", "setting": "HDAC1", "value": 0.111, "unit": "µM"}, {"measurement": "IC50", "setting": "HDAC2", "value": 0.46, "unit": "µM"}, {"measurement": "IC50", "setting": "HDAC3", "value": 0.006, "unit": "µM"}]}, {"smiles": "CCCNNC(=O)c1ccc(CNC(=O)c2ccccc2-c2c3ccc(=N)cc-3oc3cc(N)ccc23)cc1", "note": "[LL65, 6-amino-9-(2-((4-(2-propylhydrazine-1-carbonyl)benzyl)carbamoyl)phenyl)-3H-xanthen-3-iminium 2,2,2-trifluoroacetate]", "values": [{"measurement": "IC50", "setting": "HDAC1", "value": 0.276, "unit": "µM"}, {"measurement": "IC50", "setting": "HDAC2", "value": 0.849, "unit": "µM"}, {"measurement": "IC50", "setting": "HDAC3", "value": 0.036, "unit": "µM"}]}, {"smiles": "N=c1ccc2c(-c3ccccc3C(=O)NCc3ccc(C(=O)Nc4ccccc4N)cc3)c3ccc(N)cc3oc-2c1", "note": "[LL66, 2-(4-((2-(6-amino-3-iminio-3H-xanthen-9-yl)benzamido)methyl)benzamido) benzenaminium 2,2,2-trifluoroacetate]", "values": [{"measurement": "IC50", "setting": "HDAC1", "value": 4.02, "unit": "µM"}, {"measurement": "IC50", "setting": "HDAC2", "value": 3.48, "unit": "µM"}, {"measurement": "IC50", "setting": "HDAC3", "value": 0.355, "unit": "µM"}, {"measurement": "left ventricular function (dP/dtmax, dP/dtmin, developed pressure, rate pressure product)", "setting": "[1]", "value": "same magnitude of LV functional recovery from injury as the non-targeted class I HDAC inhibitor MS-275"}, {"measurement": "infarct area / viable myocardium (TTC staining)", "setting": "[1]", "value": "rescued viable myocardium to the same extent as MS-275"}, {"measurement": "maximal uncoupled OCR", "setting": "[2]; [3]", "value": "significantly decreased"}, {"measurement": "maximal uncoupled OCR", "setting": "[2]; [4]", "value": "significantly decreased"}, {"measurement": "oxidative damage (oxyblotting)", "setting": "Langendorff hearts", "value": "reduction of oxidative damage"}, {"measurement": "change in SDHA acetylation", "setting": "SDHA", "value": "significant changes in acetylation"}, {"measurement": "acetylation of SDHA K480", "setting": "SDHA", "value": "significantly hyperacetylated"}, {"measurement": "acetylation of lysine corresponding to mouse SDHA K538", "setting": "SDHA; IR with drug vs IR with vehicle", "value": "significantly hyperacetylated"}, {"measurement": "SDH activity", "setting": "succinate dehydrogenase", "value": "significantly reduced"}]}, {"smiles": "N=c1ccc2c(-c3ccccc3C(=O)NCCCCCC(=O)Nc3ccccc3N)c3ccc(N)cc3oc-2c1", "note": "[LL38, 2-(6-(2-(6-amino-3-iminio-3H-xanthen-9-yl)benzamido)hexanamido) benzenaminium 2,2,2-trifluoroacetate]", "values": [{"measurement": "IC50", "setting": "HDAC1", "value": 1.26, "unit": "µM"}, {"measurement": "IC50", "setting": "HDAC2", "value": 0.49, "unit": "µM"}, {"measurement": "IC50", "setting": "HDAC3", "value": 0.18, "unit": "µM"}]}, {"smiles": "Nc1ccccc1NC(=O)c1ccc(CNC(=O)OCc2cccnc2)cc1", "note": "[MS-275, reference compound]", "values": [{"measurement": "left ventricular function (dP/dtmax, dP/dtmin, developed pressure, rate pressure product)", "setting": "[1]", "value": "significant preservation of multiple parameters of ventricular function"}, {"measurement": "infarct area / viable myocardium (TTC staining)", "setting": "[1]", "value": "significantly reduced infarct area"}, {"measurement": "maximal uncoupled OCR", "setting": "[2]; [3]", "value": "significantly decreased"}, {"measurement": "maximal uncoupled OCR", "setting": "[2]; [4]", "value": "significantly decreased"}, {"measurement": "oxidative damage (oxyblotting)", "setting": "Langendorff hearts", "value": "reduction of oxidative damage"}, {"measurement": "change in SDHA acetylation", "setting": "SDHA", "value": "significant changes in acetylation"}, {"measurement": "change in acetylation of rat SDHA lysine corresponding to mouse K179", "setting": "SDHA; IR vs IR+drug", "value": "not significant"}, {"measurement": "acetylation of SDHA K480", "setting": "SDHA", "value": "significantly hyperacetylated"}, {"measurement": "SDH activity", "setting": "succinate dehydrogenase", "value": "significantly reduced"}]}, {"smiles": "N=c1ccc2c(-c3ccccc3C(=O)NCCCCCCC(=O)Nc3ccccc3N)c3ccc(N)cc3oc-2c1", "note": "[LL45, 2-(7-(2-(6-amino-3iminio-3H-xanthen-9-yl)benzamido)heptanamido) benzenaminium 2,2,2-trifluoroacetate]", "values": [{"measurement": "IC50", "setting": "HDAC1", "value": 1.95, "unit": "µM"}, {"measurement": "IC50", "setting": "HDAC2", "value": 2.46, "unit": "µM"}, {"measurement": "IC50", "setting": "HDAC3", "value": 0.055, "unit": "µM"}]}, {"smiles": "N=c1ccc2c(-c3ccccc3C(=O)NCCCCCCCC(=O)Nc3ccccc3N)c3ccc(N)cc3oc-2c1", "note": "[LL130, 2-(8-(2-(6-amino-3-iminio-3H-xanthen-9-yl)benzamido)octanamido) benzenaminium 2,2,2-trifluoroacetate]", "values": [{"measurement": "IC50", "setting": "HDAC1", "value": 4.73, "unit": "µM"}, {"measurement": "IC50", "setting": "HDAC2", "value": 5.17, "unit": "µM"}, {"measurement": "IC50", "setting": "HDAC3", "value": 0.152, "unit": "µM"}]}, {"smiles": "CCCNNC(=O)c1ccc(CNC(=O)CNC(=O)c2ccccc2-c2c3ccc(=N)cc-3oc3cc(N)ccc23)cc1", "note": "[LL115, 6-amino-9-(2-((2-oxo-2-((4-(2-propylhydrazine-1-carbonyl)benzyl)amino)ethyl)carbamoyl)phenyl)-3H-xanthen-3-iminium 2,2,2-trifluoroacetate]", "values": [{"measurement": "IC50", "setting": "HDAC1", "value": 0.041, "unit": "µM"}, {"measurement": "IC50", "setting": "HDAC2", "value": 0.209, "unit": "µM"}, {"measurement": "IC50", "setting": "HDAC3", "value": 0.005, "unit": "µM"}]}]}
